These results are taken from patent EP1894572B1, “THERAPEUTIC AGENT AND/OR PROPHYLACTIC AGENT FOR NEUROGENIC PAIN” (Asahi Kasei Pharma Corporation, priority 2005, dated 2013).

The nature of data set [1]: Blood retention time after intermittent administration. The data set is classed as in vivo. As to the method: From Comparative Example 1 described later, it has been considered that an analgesic action by intermittent administration of calcitonin is affected by accumulation of an effect in each administration. The blood retention time by intermittent administration is about 2 hours. Therefore, also included in the range of the present invention is an administration method in which continuous administration of 2 hours or more and less than 8 hours is repeated and accumulated duration of continuous administration within 24 hours is 8 hours or more.

For data set [2] the following is noted: human, in vivo.
Data set [3] has as its system chronic constriction injury model (CCI model). In words: CCI model, Randall Selitto method, intravenous continuous drip. The data set is classed as in vivo, rat. The settings on record: neuropathic pain; after effect once manifested. As to the method: Preparing of the CCI model and elcatonin administration initiation period were the same as in Example 1. A cannulation was performed on cervical vein, and on 2nd day after cannulation, elcatonin (0.75 U/kg/week) was administered by intravenous continuous drip at 1 mL/body/24 hours, and withdrawal pressure by Randall Slitto method was measured 4, 8, 12 and 24 hours after.

For data set [4] the following is noted: cited from earlier work.
The conditions of data set [5]: rat, in vivo. The procedure: Using normal rats (each 4 rats) which were in the same week old in initiation of administration of elcatonin as in Examples 1 and 2, dose of elcatonin not varying serum calcium value was examed in the case of single subcutaneous administration (administered over 10 seconds). […] Further, the same test was conducted excepting that blood collection was carried out 30 minutes after the administration. Measurement of serum calcium value was conducted using calcium C-test wako (Wako).

The conditions of data set [6]: rat, in vivo. The source holds these as a separate data set.
The conditions of data set [7]: rat, in vivo. This is another data set of the same source.

Where two headings read alike, the source gives them in different places. Positions of bridges follow the written chain, without caps; N, C: chain ends. Non-standard residues stand in square brackets, D forms with d. Residues, ends and D or L forms follow the SMILES beside them. Asu = N[C@@H](CCCCCC(=O)O)C(=O)O

With calcitonin, the blood retention time entry in data set [1] is “about 2 hours”. Further, the “calcitonin dose altering serum calcium values in humans” value in data set [2] came out at 0.093 mU/kg/second. Further, the “continuation of analgesic effect during the drug withdrawal period” value in data set [3] is on record as “continues for at least one week”. Further, the serum calcium result is “a significant decrease in serum calcium is recognized” in data set [4] (bone metastasis cancer patient, s.c. 400 U/man/day mixed into morphine continuous administration) and “no significant decrease in serum calcium is recognized” in data set [4] (renal osteopathy patient, drip intravenous 40 U/man/5 hours).

On to `CC(C)C[C@H](NC(=O)[C@H](CCCCN)NC(=O)CNC(=O)[C@H](CC(C)C)NC(=O)[C@@H](NC(=O)[C@@H]1CCCCCC(=O)N[C@@H](CO)C(=O)N[C@@H](CC(N)=O)C(=O)N[C@@H](CC(C)C)C(=O)N[C@@H](CO)C(=O)N[C@@H]([C@@H](C)O)C(=O)N1)C(C)C)C(=O)N[C@@H](CO)C(=O)N[C@@H](CCC(N)=O)C(=O)N[C@@H](CCC(=O)O)C(=O)N[C@@H](CC(C)C)C(=O)N[C@@H](Cc1c[nH]cn1)C(=O)N[C@@H](CCCCN)C(=O)N[C@@H](CC(C)C)C(=O)N[C@@H](CCC(N)=O)C(=O)N[C@H](C(=O)N[C@@H](Cc1ccc(O)cc1)C(=O)N1CCC[C@H]1C(=O)N[C@@H](CCCNC(=N)N)C(=O)N[C@H](C(=O)N[C@@H](CC(=O)O)C(=O)N[C@H](C(=O)NCC(=O)N[C@@H](C)C(=O)NCC(=O)N[C@H](C(=O)N1CCC[C@H]1C(N)=O)[C@@H](C)O)C(C)C)[C@@H](C)O)[C@@H](C)O` [elcatonin, 1-butylic acid-7-(L-2-aminobutylic acid)-26-L-aspartic acid-27-L-valine-29-L-alaninecalcitonin] (SNLST[Asu]VLGKLSQELHKLQTYPRTDVGAGTP-NH2; lactam N-6), for which the “serum calcium at effective dose on neuropathic pain in intermittent administration” value in data set [5] is reported as “lowered to normal value (8.5 to 10.5 mg/dl) or less”. Further, the “serum calcium value relative to normal value” in data set [5] (sc) was “below a normal value”. The serum calcium concentration entry in data set [6] is “did not affect serum calcium amount at all”. Besides, in data set [7], the body weight entry is listed as “no change in body weight was found” and the body weight increase result was “suppression of body weight increase became remarkable”.
